Measurements taken from PMC11547804, “Synthesis and Evaluation of Phenyltriazole-Deoxynojirimycin Hybrids as Potent α-Glucosidase Inhibitors” (Molecules, 2024).
“Also recorded” adds a separate entry of the source. Read-outs that look alike come from different tables or passages of the source.

How the values were obtained:
[1] = target: T1, α-glucosidase (yeast) (Saccharomyces cerevisiae, UniProt P53341); experiment: α-glucosidase (yeast) inhibition assay, p-nitrophenyl glycopyranoside substrate; assay type: biochemical; conditions: 50 mM phosphate buffer pH 6.8, 37 °C; mean ± SD, three independent experiments
T1 construct: purchased Sigma Chemical Co., St. Louis, MO, USA
T1 sequence (P53341 whole entry): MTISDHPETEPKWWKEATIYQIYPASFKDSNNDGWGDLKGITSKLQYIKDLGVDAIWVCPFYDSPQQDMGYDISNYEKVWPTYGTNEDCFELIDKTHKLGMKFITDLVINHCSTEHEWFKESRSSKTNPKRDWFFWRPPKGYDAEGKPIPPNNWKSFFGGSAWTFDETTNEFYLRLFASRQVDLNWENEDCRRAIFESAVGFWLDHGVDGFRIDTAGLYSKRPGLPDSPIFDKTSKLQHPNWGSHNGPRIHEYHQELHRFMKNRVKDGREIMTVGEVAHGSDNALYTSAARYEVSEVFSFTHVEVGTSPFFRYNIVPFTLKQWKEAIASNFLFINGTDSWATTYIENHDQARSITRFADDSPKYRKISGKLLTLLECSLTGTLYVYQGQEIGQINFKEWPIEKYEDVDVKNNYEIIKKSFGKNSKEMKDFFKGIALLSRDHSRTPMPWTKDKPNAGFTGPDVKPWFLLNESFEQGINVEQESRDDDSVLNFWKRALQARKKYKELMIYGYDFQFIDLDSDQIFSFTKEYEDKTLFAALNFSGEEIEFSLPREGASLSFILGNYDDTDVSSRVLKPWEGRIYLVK
Procedure: (§1) Compounds 10–20 (except 15 for solubility reasons) were evaluated by in vitro α-glucosidase (yeast), β-glucosidase (almonds) inhibition studies.
(§2) Two glycosidases, α-glucosidase (yeast) and β-glucosidase (almonds), and their corresponding substrates, p-nitrophenyl glycopyranosides, were purchased from Sigma Chemical Co., St. Louis, MO, USA. Other commercial reagents and solvents were used as received. Reactions were monitored by Thin Layer Chromatography (TLC) analyses using silica gel GF254 plates bearing a 0.25 mm layer. Visualization of compounds was detected by short-wave UV fluorescence (λ = 254 nm) and/or by dipping into 5% phosphomolybdic acid in EtOH. Column chromatography was carried out by silica gel (200–300 mesh). NMR spectra (^1H and ^13C) were recorded with Bruker AV III 500 MHz spectrometer using CDCl3 (22–33), D2O (10–13, 16–20) or CD3OD (14, 15) as solvents. High-resolution mass spectra (HRMS) were obtained by direct injection on a mass spectrometer (Thermo Scientific LTQ Orbitrap XL, Waltham, MA, USA) equipped with an electrospray ion source in positive mode (see Supplementary Materials).
(§3) The α-glucosidase and β-glucosidase assays were performed in 50 mM phosphate buffer (pH 6.8) at 37 °C. The inhibitors were pre-incubated with the enzyme solutions at 37 °C for 15 min, and then the corresponding substrates were added. After the enzymatic reaction was incubated at 37 °C for 15 min., it was quenched by adding Na2CO3. Absorbance readings were taken on a BioTek µQuant Microplate Spectrophotometer at 405 nm. Experiments were performed in triplicate. The IC50 values were determined graphically using GraphPad Prism (version 8.0).

[2] = target: β-glucosidase (almonds); experiment: β-glucosidase (almonds) inhibition assay, p-nitrophenyl glycopyranoside substrate; assay type: biochemical; conditions: 50 mM phosphate buffer pH 6.8, 37 °C; mean ± SD, three independent experiments
Procedure: as §1, §2, §3

[3] = target: T2, yeast α-glucosidase (Saccharomyces cerevisiae, UniProt P53341); experiment: Kinetics of enzyme inhibition (Lineweaver–Burk plots); assay type: biochemical; conditions: for mode of inhibition: Lineweaver–Burk plot, same Vmax; for Ki: substrate para-nitrophenyl α-D-glucopyranoside, pH 6.8, 37 °C, read-out: inhibition constant (Ki)
T2 construct: purchased Sigma Chemical Co., St. Louis, MO, USA
T2 sequence (P53341 whole entry): as above
Procedure: In order to gain further insight into how these hybrids interact with α-glucosidase, the mode of inhibition for compounds 18 and 19 as representative examples was analyzed using the Lineweaver–Burk plot (Figure 2).
The inhibition types of the selected compounds were determined from Lineweavere–Burk plots. […] The enzyme reaction was performed according to the conditions described above.
Figure 2 Double-reciprocal plots of the inhibition kinetics of yeast α-glucosidase by compounds 18 (a), 19 (b).

[4] = Cell proliferation / viability CCK-8 assay; assay type: cell-based; conditions: human, HL60 cells; HL60, 50 µM, 24 h, CCK-8
Procedure: (§4) Compounds 9, 13 and 17–20 with better inhibitory activity on α-glucosidase were selected to study the effect on cell viability and proliferation by CCK-8 assay (Figure 5). […] When viability was measured at 50 µM for these compounds, the viability of compound 19 was 96.97% compared with 20.89% for compound 20. […] With the increase in compound concentration, a lot of dead cells and more cell debris were observed, and the culture medium became muddy for 20, which was not obviously observed for 9, 13 and 17–19.
(§5) HL60 cells in DMEM supplemented with 10% fetal bovine serum were seeded at a density of 5 × 10^3 cells/well in a 96-well plate and incubated at 37 °C for 24 h. The medium was substituted with fresh medium containing a range of concentrations of inhibitors in DMSO and cultured for another 24 h. CCK-8 solution (10 µL) was added to each well incubated at 37 °C for 1 h. The absorbance was read on a BioTek µQuant Microplate Spectrophotometer at 450 nm. The cell vitality curve was depicted with GraphPad Prism (version 8.0).

[5] = system: HL60 cells; experiment: Cell proliferation / viability CCK-8 assay; assay type: cell-based; conditions: for cell survival rate: HL60, 80 µM, 24 h, CCK-8
Procedure: as §4, §5

[6] = target: T1, α-glucosidase (yeast); parameters: method as in doi:10.1080/07328303.2020.1837150; conditions: data for 7–9 and DNJ included for comparative purposes; cited from earlier work
[7] = target: β-glucosidase (almonds); conditions: data for 7–9 and DNJ included for comparative purposes; cited from earlier work

Row | IC50 [1] | IC50 [2] | Compound | other results
1 | 130 ± 9 µM | 130 ± 5 µM | OC[C@@H]1[C@@H](O)[C@H](O)[C@@H](O)CN1CCCCCCn1cc(-c2ccccc2)nn1 [Compound 14, (2R,3R,4R,5S)-2-(hydroxymethyl)-1-(6-(4-phenyl-1H-1,2,3-triazol-1-yl)hexyl)piperidine-3,4,5-triol] | –
2 | 16 ± 2 µM | 77 ± 4 µM | CCCCCCc1ccc(-c2cn(CCCCCCN3C[C@H](O)[C@@H](O)[C@H](O)[C@H]3CO)nn2)cc1 [Compound 20, (2R,3R,4R,5S)-1-(6-(4-(4-hexylphenyl)-1H-1,2,3-triazol-1-yl)hexyl)-2-(hydroxymethyl)piperidine-3,4,5-triol] | viability at 24 h, 50 µM [4]: 20.9%; cytotoxicity ([5]; HL60, 50 µM): exhibited cytotoxicity; also recorded: cytotoxic; cell survival rate [5]: 6.66%
3 | 82 ± 5 µM | 529 ± 41 µM | CCCCCCc1ccc(-c2cn(CCCCN3C[C@H](O)[C@@H](O)[C@H](O)[C@H]3CO)nn2)cc1 [Compound 13, (2R,3R,4R,5S)-1-(4-(4-(4-hexylphenyl)-1H-1,2,3-triazol-1-yl)butyl)-2-(hydroxymethyl)piperidine-3,4,5-triol] | –
4 | 68 ± 4 µM | 65 ± 2 µM | CCc1ccc(-c2cn(CCCCCCN3C[C@H](O)[C@@H](O)[C@H](O)[C@H]3CO)nn2)cc1 [Compound 16, (2R,3R,4R,5S)-1-(6-(4-(4-ethylphenyl)-1H-1,2,3-triazol-1-yl)hexyl)-2-(hydroxymethyl)piperidine-3,4,5-triol] | –
5 | 14 ± 1 µM | 62 ± 4 µM | CCCc1ccc(-c2cn(CCCCCCN3C[C@H](O)[C@@H](O)[C@H](O)[C@H]3CO)nn2)cc1 [Compound 17, (2R,3R,4R,5S)-2-(hydroxymethyl)-1-(6-(4-(4-propylphenyl)-1H-1,2,3-triazol-1-yl)hexyl)piperidine-3,4,5-triol] | –

More lines, now with the values behind:

Row | Compound | IC50 [1] | IC50 [2] | other results
6 | CCCCCc1ccc(-c2cn(CCCCCCN3C[C@H](O)[C@@H](O)[C@H](O)[C@H]3CO)nn2)cc1 [Compound 19, (2R,3R,4R,5S)-2-(hydroxymethyl)-1-(6-(4-(4-pentylphenyl)-1H-1,2,3-triazol-1-yl)hexyl)piperidine-3,4,5-triol] | 11 ± 1 µM | 73 ± 7 µM | mode of inhibition [3]: competitive; Ki [3]: 3.7 µM; viability at 24 h, 50 µM [4]: 97%; cell survival rate [5]: 71.28%
7 | CCCCc1ccc(-c2cn(CCCCCCN3C[C@H](O)[C@@H](O)[C@H](O)[C@H]3CO)nn2)cc1 [Compound 18, (2R,3R,4R,5S)-1-(6-(4-(4-butylphenyl)-1H-1,2,3-triazol-1-yl)hexyl)-2-(hydroxymethyl)piperidine-3,4,5-triol] | 11 ± 1 µM | 69 ± 5 µM | mode of inhibition [3]: competitive; Ki [3]: 3.8 µM
8 | CCCCc1ccc(-c2cn(CCCCN3C[C@H](O)[C@@H](O)[C@H](O)[C@H]3CO)nn2)cc1 [Compound 12, (2R,3R,4R,5S)-1-(4-(4-(4-butylphenyl)-1H-1,2,3-triazol-1-yl)butyl)-2-(hydroxymethyl)piperidine-3,4,5-triol] | 105 ± 9 µM | 770 ± 92 µM | –
9 | OC[C@@H]1[C@@H](O)[C@H](O)[C@@H](O)CN1CCCCn1cc(-c2ccccc2)nn1 [Compound 7] | – | – | IC50 [6]: 551 ± 25 µM; IC50 [7]: > 1000 µM
11 | CCc1ccc(-c2cn(CCCCN3C[C@H](O)[C@@H](O)[C@H](O)[C@H]3CO)nn2)cc1 [Compound 10, (2R,3R,4R,5S)-1-(4-(4-(4-ethylphenyl)-1H-1,2,3-triazol-1-yl)butyl)-2-(hydroxymethyl)piperidine-3,4,5-triol] | 244 ± 32 µM | > 1000 µM | –
12 | CCCc1ccc(-c2cn(CCCCN3C[C@H](O)[C@@H](O)[C@H](O)[C@H]3CO)nn2)cc1 [Compound 11, (2R,3R,4R,5S)-2-(hydroxymethyl)-1-(4-(4-(4-propylphenyl)-1H-1,2,3-triazol-1-yl)butyl)piperidine-3,4,5-triol] | 171 ± 25 µM | 739 ± 78 µM | –
13 | CCCCCc1ccc(-c2cn(CCCCN3C[C@H](O)[C@@H](O)[C@H](O)[C@H]3CO)nn2)cc1 [Compound 9] | – | – | IC50 [6]: 63 ± 6 µM; IC50 [7]: 665 ± 57 µM
14 | Cc1ccc(-c2cn(CCCCN3C[C@H](O)[C@@H](O)[C@H](O)[C@H]3CO)nn2)cc1 [Compound 8] | – | – | IC50 [6]: 324 ± 65 µM; IC50 [7]: > 1000 µM
